pIC50: −log10 of the molar value.

Data on 13 molecules can be found in ChEMBL document CHEMBL4417631, “Oral peptide inhibitors of interleukin-23 receptor and their use to treat inflammatory bowel diseases” (2017).

Series [1] in a line: Inhibition of interleukin-23 binding to rat interleukin-23 receptor incubated for 2 hrs by competitive binding ELISA.
A short description of series [2]: Half life in simulated intestinal fluid at 20 uM by LC-MS/MS analysis. The class given is ADME.
Series [3] concerns the target T1, Interleukin-23 receptor (Homo sapiens, UniProt Q5VWK5).
T1 sequence (Q5VWK5 whole entry): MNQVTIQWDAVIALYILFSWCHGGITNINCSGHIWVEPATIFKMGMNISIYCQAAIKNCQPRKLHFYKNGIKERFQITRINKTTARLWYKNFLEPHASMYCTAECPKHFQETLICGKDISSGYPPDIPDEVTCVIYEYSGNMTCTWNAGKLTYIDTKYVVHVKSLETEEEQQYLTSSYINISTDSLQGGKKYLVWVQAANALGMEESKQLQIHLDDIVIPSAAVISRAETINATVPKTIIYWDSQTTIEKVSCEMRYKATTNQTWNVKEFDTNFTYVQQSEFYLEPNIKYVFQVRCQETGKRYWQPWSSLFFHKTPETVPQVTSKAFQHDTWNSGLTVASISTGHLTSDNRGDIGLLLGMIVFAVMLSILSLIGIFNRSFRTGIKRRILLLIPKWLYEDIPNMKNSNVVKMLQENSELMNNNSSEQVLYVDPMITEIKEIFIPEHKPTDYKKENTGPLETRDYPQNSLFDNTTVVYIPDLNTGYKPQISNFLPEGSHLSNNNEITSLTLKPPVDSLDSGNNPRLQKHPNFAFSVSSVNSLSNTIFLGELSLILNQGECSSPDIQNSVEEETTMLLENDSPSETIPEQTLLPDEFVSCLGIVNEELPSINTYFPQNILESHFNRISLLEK
The experiment in a line: Inhibition of interleukin-23 receptor in human DB cells assessed as reduction in IL-23-stimulated STAT3 phosphorylation incubated for 30 mins by HTRF assay. The class given is cell-based. A general note: TR-FRET usually uses a lanthanide donor and a delayed reading to cut background.

Series [4] addresses T1, Interleukin-23 receptor. The experiment in a line: Inhibition of interleukin-23 binding to human interleukin-23 receptor incubated for 2 hrs by competitive binding ELISA. For orientation: In an ELISA, binding on a coated surface is turned into a signal by an enzyme label.
A short description of series [5]: Half life in simulated gastric fluid at 20 uM by LC-MS/MS analysis. The class given is ADME.

In the case of `COc1ccc(C[C@H](NC(=O)[C@@H](NC(=O)[C@H](CCC(N)=O)NC(=O)[C@H](Cc2c[nH]c3ccccc23)NC(=O)[C@@H](NC(=O)[C@H](CCC(N)=O)NC(=O)[C@@H](NC(=O)[C@@H]2CCC(=O)N2)C(C)(C)S)[C@@H](C)O)C(C)(C)S)C(=O)N[C@@H](Cc2ccc3ccccc3c2)C(=O)N[C@@](C)(CCCCN)C(=O)N[C@@H](CCCCNC(C)=O)C(=O)N[C@@H](CC(N)=O)C(=O)NCC(N)=O)cc1`, the figures for the negative-log IC50 (pIC50) (in series [1]; on Interleukin-23 receptor [3]; at Interleukin-23 receptor [4]) were 7.00 to 7.60, more than 8.00 and 7.00 to 7.60, respectively. The half-life at 20 µM in series [2] was more than 6 h; in series [5], 3 to 6 h.
As to `COc1ccc(C[C@H](NC(=O)[C@@H]2CSCC[C@H](NC(C)=O)C(=O)N[C@@H](CCC(N)=O)C(=O)N[C@@H]([C@@H](C)O)C(=O)N[C@@H](Cc3c[nH]c4ccccc34)C(=O)N[C@@H](CCC(N)=O)C(=O)N2)C(=O)N[C@@H](Cc2c[nH]c3ccccc23)C(=O)N[C@@](C)(CCCN)C(=O)N[C@@H](CCC(=O)O)C(=O)N[C@@H](CC(N)=O)C(=O)NCC(N)=O)cc1`, the values for the pIC50 (in series [1]; at Interleukin-23 receptor [3]; on Interleukin-23 receptor [4]) were 7.00 to 7.60, more than 8.00 and 7.00 to 7.60, respectively. The half-life at 20 µM is 3 to 6 h in series [2] and less than 1 h in series [5].
Turning to `CC(=O)N[C@H](C(=O)N[C@@H](CCC(N)=O)C(=O)N[C@H](C(=O)N[C@@H](Cc1c[nH]c2ccccc12)C(=O)N[C@@H](CCC(N)=O)C(=O)N[C@H](C(=O)N[C@@H](Cc1ccc(OCCN)cc1)C(=O)N[C@@H](Cc1ccc2ccccc2c1)C(=O)N[C@@](C)(CC(C)C)C(=O)N[C@@H](CCC(N)=O)C(=O)N[C@@H](CC(N)=O)C(=O)N[C@@H](CC(N)=O)C(N)=O)C(C)(C)S)[C@@H](C)O)C(C)(C)S`, the negative-log IC50 (pIC50) (in series [1]; at Interleukin-23 receptor [3]; on Interleukin-23 receptor [4]) was more than 8.00 throughout. In addition, the half-life at 20 µM in series [2] and in series [5] was more than 6 h each time.
For `COc1ccc(C[C@H](NC(=O)[C@@H]2CSCC[C@H](NC(C)=O)C(=O)N[C@@H](CCC(N)=O)C(=O)N[C@@H]([C@@H](C)O)C(=O)N[C@@H](Cc3c[nH]c4ccccc34)C(=O)N[C@@H](CCC(N)=O)C(=O)N2)C(=O)N[C@@H](Cc2c[nH]c3ccccc23)C(=O)N[C@@](C)(CCCCN)C(=O)N[C@@H](CCC(=O)O)C(=O)N[C@@H](CC(N)=O)C(=O)NCC(N)=O)cc1`, the negative logarithm of the IC50 (pIC50) in series [1] is 7.00 to 7.60; on Interleukin-23 receptor [3] it was 7.60 to 8.00; at Interleukin-23 receptor [4] it was 7.60 to 8.00. The half-life at 20 µM is more than 6 h in series [2] and less than 1 h in series [5].
Take `COc1ccc(C[C@H](NC(=O)[C@@H]2CSCC[C@H](NC(C)=O)C(=O)N[C@@H](CCC(N)=O)C(=O)N[C@@H]([C@@H](C)O)C(=O)N[C@@H](Cc3c[nH]c4ccccc34)C(=O)N[C@@H](CCC(N)=O)C(=O)N2)C(=O)N[C@@H](Cc2ccc3ccccc3c2)C(=O)N[C@@](C)(CCCCN)C(=O)N[C@@H](CCCCNC(C)=O)C(=O)N[C@@H](CC(N)=O)C(=O)NCC(N)=O)cc1`: the negative logarithm of the IC50 (pIC50) in series [1] is 7.60 to 8.00; at Interleukin-23 receptor [3], more than 8.00; on Interleukin-23 receptor [4] it was more than 8.00. In addition, the figures for the half-life at 20 µM in series [2] and in series [5] were 3 to 6 h and less than 1 h, respectively.
On to `CC(=O)N[C@H]1CCSC[C@@H](C(=O)N[C@@H](Cc2ccc(OCCN)cc2)C(=O)N[C@@H](Cc2ccc3ccccc3c2)C(=O)N[C@@](C)(CCCCN)C(=O)N[C@@H](CCC(=O)O)C(=O)N[C@@H](CC(N)=O)C(=O)NCC(N)=O)NC(=O)[C@H](CCC(N)=O)NC(=O)[C@H](Cc2c[nH]c3ccccc23)NC(=O)[C@H]([C@@H](C)O)NC(=O)[C@H](CCC(N)=O)NC1=O`, for which the pIC50 (in series [1]; on Interleukin-23 receptor [3]; at Interleukin-23 receptor [4]) was more than 8.00 in each case. For the same molecule, the half-life at 20 µM in series [2] and in series [5] was more than 6 h in each case.
As to `COc1ccc(C[C@H](NC(=O)[C@@H]2CSCC[C@H](NC(C)=O)C(=O)N[C@@H](CCC(N)=O)C(=O)N[C@@H]([C@@H](C)O)C(=O)N[C@@H](Cc3c[nH]c4ccccc34)C(=O)N[C@@H](CCC(N)=O)C(=O)N2)C(=O)N[C@@H](Cc2cccc3ccccc23)C(=O)N[C@@](C)(CCCCN)C(=O)N[C@@H](CCCCNC(C)=O)C(=O)N[C@@H](CC(N)=O)C(=O)NCC(N)=O)cc1`, the pIC50 in series [1] was 7.00 to 7.60; on Interleukin-23 receptor [3] it was 7.60 to 8.00; at Interleukin-23 receptor [4], 7.00 to 7.60. Also, the half-life at 20 µM was more than 6 h in series [2] and less than 1 h in series [5].
For `COc1ccc(C[C@H](NC(=O)[C@H]2NC(=O)[C@H](CCC(N)=O)NC(=O)[C@H](Cc3c[nH]c4ccccc34)NC(=O)[C@H]([C@@H](C)O)NC(=O)[C@H](CCC(N)=O)NC(=O)[C@@H](NC(C)=O)CCSC2(C)C)C(=O)N[C@@H](Cc2ccc3ccccc3c2)C(=O)N[C@@](C)(CCCCN)C(=O)N[C@@H](CCCCNC(C)=O)C(=O)N[C@@H](CC(N)=O)C(=O)NCC(N)=O)cc1`, the negative logarithm of the IC50 (pIC50) in series [1] is 6.00 to 7.00; at Interleukin-23 receptor [3] it was 7.00 to 7.60; on Interleukin-23 receptor [4], 7.00 to 7.60. Moreover, the half-life at 20 µM in series [2] was 3 to 6 h; in series [5] it was 2 to 3 h.
`CC(=O)NCCCC[C@H](NC(=O)[C@](C)(CCCCN)NC(=O)[C@H](Cc1ccc2ccccc2c1)NC(=O)[C@H](Cc1ccc(OCCN)cc1)NC(=O)[C@@H](NC(=O)[C@H](CCC(N)=O)NC(=O)[C@H](Cc1c[nH]c2ccccc12)NC(=O)[C@@H](NC(=O)[C@H](CCC(N)=O)NC(=O)[C@@H](NC(C)=O)C(C)(C)S)[C@@H](C)O)C(C)(C)S)C(=O)N[C@@H](CC(N)=O)C(=O)N[C@@H](CC(N)=O)C(N)=O`: the values for the pIC50 (in series [1]; at Interleukin-23 receptor [3]; on Interleukin-23 receptor [4]) were 7.60 to 8.00, more than 8.00 and more than 8.00, respectively. Further, the half-life at 20 µM in series [2] and in series [5] was more than 6 h each time.
Turning to `COc1ccc(C[C@H](NC(=O)[C@@H]2CSCC[C@H](NC(=O)[C@@H](CCCCNC(=O)COCC(=O)NCCCC[C@@H](NC(C)=O)C(=O)N[C@H]3CCSC[C@@H](C(=O)N[C@@H](Cc4ccc(OC)cc4)C(=O)N[C@@H](Cc4ccc5ccccc5c4)C(=O)N[C@@](C)(CC(C)C)C(=O)N[C@@H](CCC(=O)O)C(=O)N[C@@H](CC(N)=O)C(=O)NCC(N)=O)NC(=O)[C@H](CCC(N)=O)NC(=O)[C@H](Cc4c[nH]c5ccccc45)NC(=O)[C@H]([C@@H](C)O)NC(=O)[C@H](CCC(N)=O)NC3=O)NC(C)=O)C(=O)N[C@@H](CCC(N)=O)C(=O)N[C@@H]([C@@H](C)O)C(=O)N[C@@H](Cc3c[nH]c4ccccc34)C(=O)N[C@@H](CCC(N)=O)C(=O)N2)C(=O)N[C@@H](Cc2ccc3ccccc3c2)C(=O)N[C@@](C)(CC(C)C)C(=O)N[C@@H](CCC(=O)O)C(=O)N[C@@H](CC(N)=O)C(=O)NCC(N)=O)cc1`, the figures for the pIC50 (in series [1]; on Interleukin-23 receptor [3]; on Interleukin-23 receptor [4]) were 7.00 to 7.60, more than 8.00 and more than 8.00, respectively. In addition, the half-life at 20 µM is 1 to 2 h in series [2] and less than 1 h in series [5].
As to `COc1ccc(C[C@H](NC(=O)[C@@H]2CSCC[C@H](NC(=O)[C@@H](CCCCN)NC(C)=O)C(=O)N[C@@H](CCC(N)=O)C(=O)N[C@@H]([C@@H](C)O)C(=O)N[C@@H](Cc3c[nH]c4ccccc34)C(=O)N[C@@H](CCC(N)=O)C(=O)N2)C(=O)N[C@@H](Cc2ccc3ccccc3c2)C(=O)N[C@@](C)(CC(C)C)C(=O)N[C@@H](CCC(=O)O)C(=O)N[C@@H](CC(N)=O)C(=O)NCC(N)=O)cc1`, the pIC50 in series [1] is 7.60 to 8.00; on Interleukin-23 receptor [3], more than 8.00; at Interleukin-23 receptor [4] it was more than 8.00. In addition, the half-life at 20 µM is 1 to 2 h in series [2] and less than 1 h in series [5].
As for `CC(=O)N[C@H](CCC(=O)O)C(=O)N[C@H]1CCSC[C@@H](C(=O)N[C@@H](Cc2ccc(OCCN)cc2)C(=O)N[C@@H](Cc2ccc3ccccc3c2)C(=O)N[C@@](C)(CCCCN)C(=O)N[C@@H](CCC(=O)O)C(=O)N[C@@H](CC(N)=O)C(=O)N[C@@H](CC(N)=O)C(N)=O)NC(=O)[C@H](CCC(N)=O)NC(=O)[C@H](Cc2c[nH]c3ccccc23)NC(=O)[C@H]([C@@H](C)O)NC(=O)[C@H](CCC(N)=O)NC1=O`, the pIC50 (in series [1]; at Interleukin-23 receptor [3]; at Interleukin-23 receptor [4]) was more than 8.00 throughout. Moreover, the half-life at 20 µM in series [2] is more than 6 h; in series [5], 1 to 2 h.
Consider `CC(=O)N[C@H](C(=O)N[C@@H](CCC(N)=O)C(=O)N[C@H](C(=O)N[C@@H](Cc1c[nH]c2ccccc12)C(=O)N[C@@H](CCC(N)=O)C(=O)N[C@H](C(=O)N[C@@H](Cc1ccc(OCCN)cc1)C(=O)N[C@@H](Cc1ccc2ccccc2c1)C(=O)N[C@@](C)(CCCCN)C(=O)N[C@@H](CCC(=O)O)C(=O)N[C@@H](CC(N)=O)C(=O)N[C@@H](C)C(N)=O)C(C)(C)S)[C@@H](C)O)C(C)(C)S`, for which the results for the negative-log IC50 (pIC50) (in series [1]; on Interleukin-23 receptor [3]; at Interleukin-23 receptor [4]) were 7.00 to 7.60, more than 8.00 and more than 8.00, respectively. The half-life at 20 µM in series [2] and in series [5] was more than 6 h in each case.

The pIC50 is the IC50 on a negative log10 scale, so that one unit is a factor of ten. Usually half-life stands for the time needed for the level to fall by half in the phase considered. Lower therefore signals rapid decline.
